Measured values from patent US20120183631A1, “INGREDIENT EXTRACTED FROM POUZOLZIA ZEYLANICA (L.) BENN AND ITS ANTI-ACNE FORMULA” (priority 2011, published 2012).

Test system: endotoxin
Format: cell-based

COc1cc(/C=C/C(=O)CC(=O)/C=C/c2ccc(O)c(OC)c2)ccc1O [Curcumin]
Inhibition of endotoxin (in words): not restrained
